Assay results published in paper PMC8688338 (Molecular microbiology, 2021).
Several values for one entry are separate records, joined by “and”; a condition that tells them apart may be missing. Equal values may be shown once. Read-outs that look alike come from different tables or passages of the source.

Assays:
T. vaginalis = details: cited from earlier work
TvagENT3 = TvagENT3 (Trichomonas vaginalis, UniProt A2E5Q3); assay: [3H]-cytidine uptake by T. brucei TbAT1-KO cells expressing TvagENT3; details: for inhibition of cytidine uptake: 0.5 µM [3H]-cytidine
[1] = test system: Nc1ccn([C@@H]2O[C@H](CO)[C@@H](O)[C@H]2O)c(=O)n1; assay: cells, lysate or membranes
[2] = molecular target: low affinity pyrimidine nucleobase transporter of T. vaginalis; assay: [3H]-uracil transport in T. vaginalis trophozoites; assay type: cell-based, Trichomonas vaginalis; details: for Ki: read-out: Ki,app
[3] = molecular target: T. vaginalis nucleoside transporters, Inosine (LA); assay: Low affinity [3H]-inosine transport in T. vaginalis trophozoites; assay type: cell-based, Trichomonas vaginalis; details: for Ki: read-out: Ki,app; for Km: read-out: Km,app
[4] = test system: T. vaginalis nucleoside transporters; details: ref Harris et al., 1988; cited from earlier work
[5] = test system: T. vaginalis nucleoside transporters, Thymidine (HA); assay: Higher affinity [3H]-thymidine transport; assay type: cell-based, Trichomonas vaginalis; details: for EC50: single experiment
[6] = molecular target: T. vaginalis nucleoside transporters, Cytidine (HA); assay: High affinity [3H]-cytidine transport in T. vaginalis trophozoites; assay type: cell-based, Trichomonas vaginalis; details: for Ki: read-out: Ki,app, inhibition of […] [3H]-cytidine transport, 30 s; for Km: read-out: Km,app, […] [3H]-cytidine
[7] = molecular target: T. vaginalis nucleoside transporters, Adenosine (HA); assay: High affinity [3H]-adenosine transport in T. vaginalis trophozoites; assay type: cell-based, Trichomonas vaginalis
[8] = test system: T. vaginalis nucleoside transporters, Adenosine (LA); assay: Low affinity adenosine transport; assay type: cell-based, Trichomonas vaginalis; details: for inhibition of transport: 20 µM [3H]-adenosine, highest tested concentration: guanosine 250 µM, adenine 1 mM, hypoxanthine 1 mM, uracil 10 mM; for Ki: read-out: Ki,app, average and SEM; for Ki / EC50: inhibition of 20 µM [3H]-adenosine transport; for EC50: single experiment, Fig. 4
[9] = test system: T. vaginalis nucleoside transporters, Guanosine (HA); assay: [3H]-guanosine transport in T. vaginalis trophozoites; assay type: cell-based, Trichomonas vaginalis; details: for Ki: read-out: Ki,app, inhibition of [3H]-guanosine transport, monophasic sigmoid curve
[10] = test system: T. vaginalis nucleoside transporters, Cytidine (LA); assay: Low affinity cytidine transport in T. vaginalis trophozoites; assay type: cell-based, Trichomonas vaginalis; details: Cytidine (LA); average and SEM
[11] = molecular target: T. vaginalis nucleoside transporters, Uridine (HA); assay: [3H]-uridine transport in T. vaginalis trophozoites; assay type: cell-based, Trichomonas vaginalis; details: for Km: read-out: Km,app, Uridine (HA)
[12] = test system: T. vaginalis trophozoites; assay: Preliminary uptake of cytosine and thymine by T. vaginalis trophozoites; assay type: cell-based, Trichomonas vaginalis; details: preliminary experiments
TvagENT6 [13] = molecular target: T1, TvagENT6 (Trichomonas vaginalis, UniProt A2EMT5)
[14] = test system: T. vaginalis adenine transporter; assay: [3H]-adenine transport in T. vaginalis trophozoites; assay type: cell-based, Trichomonas vaginalis; details: for Km: read-out: Km,app
TvagENT6 [15] = molecular target: T1, TvagENT6; assay: cell-based
[16] = inhibition of 1 µM [3H]-inosine uptake, average and SEM
[17] = inhibition of 0.125 µM [3H]-thymidine uptake, Fig. 3C/D
[18] = read-out: Ki,app, inhibition of […] [3H]-adenosine transport, 30 s, monophasic, average and SEM
[19] = inhibition of 0.5 µM [3H]-uracil uptake
[20] = single experiment, Fig. 6E inset
[21] = read-out: Ki,app, low affinity component

Nc1ncnc2c([C@@H]3O[C@H](CO)[C@@H](O)[C@H]3O)[nH]nc12 [formycin A]
antitrichomonal activity (T. vaginalis; ref Munagala and Wang, 2003): strong antitrichomonal activity

2’F,2’-deoxyadenosine
antitrichomonal activity (T. vaginalis; ref Shokar et al., 2012): strong antitrichomonal activity | Hill slope (TvagENT3): −0.97± 0.15 | Ki (TvagENT3; read-out: Ki,app): 1.11 ± 0.38 µM

TvagENT3 (Trichomonas vaginalis G3)
Km ([1]; other: 0.5 µM [3H]-cytidine, TvagENT3 in T. brucei TbAT1-KO, average): 10.2 ± 2.6 µM | Km ([1]; other: single experiment, Fig. 10D inset): 10.9 µM

O=c1[nH]cc(F)c(=O)[nH]1 [5F-uracil]
Ki [2]: 265 ± 57 µM

Nc1nc2c(ncn2[C@@H]2O[C@H](CO)[C@@H](O)[C@H]2O)c(=O)[nH]1 [guanosine]
Ki [3, 16]: 7.41 ± 2.92 µM | Ki ([3]; inhibition of 1 µM [3H]-inosine uptake, average and SEM, listed as Guanosine): 7.4 ± 2.9 µM | Km [4]: 13.9 µM | Hill slope (TvagENT3): −1.33 ± 0.09 | Ki (TvagENT3): 2.9 ± 0.14 µM | EC50 [5, 17]: 51.2 µM | Ki ([6]; average and SEM): 16.7 ± 2.6 µM | Ki [7, 18]: 12.2 ± 2.4 µM | inhibition of transport [8]: ≤ 50% | Ki [8]: > 250 µM | rate of transport ([9]; 1 µM [3H]-guanosine): 0.22 ± 0.01 pmol(10^7 cells)^−1s^−1 | rate of transport in the presence of unlabelled permeant ([9]; 1 µM [3H]-guanosine + 0.25 mM unlabelled guanosine): 0.0030 ± 0.0004 pmol(10^7 cells)^−1s^−1 | reduction of uptake ([9]; 1 µM [3H]-guanosine by 250 µM guanosine): 98.6% | Vmax ([9]; Guanosine (HA), average and SEM): 0.91 ± 0.25 pmol(10^7 cells)^−1s^−1 | Km ([9]; read-out: Km,app, Guanosine (HA), average and SEM): 9 ± 0.6 µM

Nc1ccn([C@@H]2O[C@H](CO)[C@@H](O)[C@H]2O)c(=O)n1 [cytidine]
inhibition of cytidine uptake (TvagENT3; 1 mM unlabelled cytidine): strongly inhibited | Vmax (TvagENT3; single experiment, Fig. 10D inset): 0.042 pmol(10^7 cells)^−1s^−1 | Hill slope (TvagENT3; single experiment, Fig. 10D-F): −0.99 | EC50 ([5]; read-out: EC50, higher affinity component, 0.125 µM [3H]-thymidine, 2-transporter plot, Fig. 3D): 2.86 µM | EC50 ([5]; read-out: EC50, lower affinity component, 0.125 µM [3H]-thymidine, 2-transporter plot, Fig. 3D): 322 µM | inhibition of uptake ([6]; 0.25 µM [3H]-cytidine by 1 mM unlabelled cytidine): 97.0% | rate of transport ([6]; 0.25 µM [3H]-cytidine, no inhibitor): 0.026 ± 0.001 pmol(10^7 cells)^−1s^−1 | Vmax ([6]; Cytidine (HA), average and SEM): 0.83 ± 0.06 pmol(10^7 cells)^−1s^−1 | Km ([6]; Cytidine (HA), average and SEM): 7.19 ± 1.77 µM | Km ([6]; Cytidine (HA), average and SEM, listed as Cytidine): 7.2 ± 1.8 µM | Vmax [10]: 6.7 ± 1.8 pmol(10^7 cells)^−1s^−1 | Ki ([11]; read-out: Ki,app, inhibition of 0.5 µM [3H]-uridine transport, 30 s, average and SEM): 15.6 ± 2.3 µM | Ki [7, 18]: 17.9 ± 4.4 µM | EC50 [8]: 290 µM | Ki [8]: 116 ± 5 µM | Ki ([9]; average and SEM): 18.6 ± 0.9 µM

Cc1c[nH]c(=O)[nH]c1=O [thymine]
Ki [2, 19]: 57 ± 8 µM | saturable uptake ([12]; thymine 0.5 µM over 120 s): not significant

Nc1ncnc2nc[nH]c12 [adenine]
inhibition of transporter (TvagENT6 [13]; adenine up to 1 mM): not significantly inhibited | inhibition of transport ([5]; 125 nM [3H]-thymidine, nucleobase at 1 mM): ≤ 50% | Ki ([7]; read-out: Ki,app, inhibition of […] [3H]-adenosine transport): > 1000 µM | Ki [7, 18]: ~1000 µM | EC50 [14]: 0.35 µM | rate of transport ([14]; 50 nM [3H]-adenine): 0.00073 pmol(10^7 cells)^−1s^−1 | rate of transport in the presence of unlabelled permeant ([14]; 50 nM [3H]-adenine + 1 mM unlabelled adenine): 0.000097 pmol(10^7 cells)^−1s^−1 | inhibition of uptake ([14]; 50 nM [3H]-adenine by 1 mM unlabelled adenine): 86.7% | Vmax ([14]; 50 nM [3H]-adenine, average): 0.091 ± 0.027 pmol(10^7 cells)^−1s^−1 | rate of transport ([14]; 1 µM [3H]-adenine): 0.0164 pmol(10^7 cells)^−1s^−1 and 0.016 pmol(10^7 cells)^−1s^−1 | rate of transport in the presence of unlabelled permeant ([14]; 1 µM [3H]-adenine + 1 mM unlabelled adenine): 0.00429 pmol(10^7 cells)^−1s^−1 | inhibition of uptake ([14]; 1 µM [3H]-adenine by 1 mM unlabelled adenine): 73.8% | EC50 ([14]; inhibition of [3H]-adenine uptake, single experiment, Fig. 6E): 0.27 µM | EC50 ([14]; read-out: EC50, high affinity component, two transporter model, Fig. 6F): 0.23 µM | EC50 ([14]; read-out: EC50, lower affinity component, two transporter model, Fig. 6F, large degree of uncertainty): 17 µM | Km ([14]; 50 nM [3H]-adenine, high-affinity system, average): 0.41 ± 0.097 µM | Km [14, 20]: 0.23 µM | Vmax [14, 20]: 0.155 pmol(10^7 cells)^−1s^−1 | share of flux of high affinity component ([14]; two transporter model, Fig. 6F): 81% | inhibition of transport [8]: ≤ 50% | Ki [8]: > 1000 µM

Nc1ncnc2c1ncn2[C@@H]1O[C@H](CO)[C@@H](O)[C@@H]1O [adenine arabinoside]
antitrichomonal activity (T. vaginalis; ref Shokar et al., 2012): strong antitrichomonal activity

Nc1cc[nH]c(=O)n1 [cytosine]
Ki [2, 19]: 334 ± 73 µM | saturable uptake ([12]; cytosine 0.25 µM over 120 s): not significant

Nc1ncnc2c1ncn2[C@@H]1O[C@H](CO)[C@@H](O)[C@@H]1F [2′-F,2′-deoxyarabinoadenosine]
antitrichomonal activity (T. vaginalis; ref Shokar et al., 2012): strong antitrichomonal activity

O=c1[nH]cnc2c1ncn2[C@@H]1O[C@H](CO)[C@@H](O)[C@H]1O [inosine]
inhibition of uracil transport ([2]; uridine, thymidine up to 10 mM, adenosine, inosine up to 1 mM): unable to inhibit | rate of uptake ([3]; 1 µM [3H]-inosine): 0.0081 ± 0.0002 pmol(10^7 cells)^−1s^−1 | inhibition of uptake ([3]; 1 µM [3H]-inosine time course, 1 mM unlabelled nucleoside): 88% | rate of uptake ([3]; 1 µM [3H]-inosine, listed as Inosine): 0.0081 pmol(10^7 cells)^−1s^−1 | Vmax ([3]; Inosine (LA), average and SEM): 2.25 ± 0.37 pmol(10^7 cells)^−1s^−1 | EC50 ([3]; inhibition of 1 µM [3H]-inosine uptake, single experiment, Fig. 5B): 67.1 µM | Km ([3]; Inosine (LA), 1 µM [3H]-inosine, average and SEM): 196 ± 18 µM | Km ([3]; single experiment, Fig. 5B inset): 157 µM | Ki (TvagENT6 [15]): 40 ± 9.5 µM | Hill slope (TvagENT3): −1.08 ± 0.02 | inhibition of cytidine uptake (TvagENT3; inhibitor at 400 µM): completely | Hill slope (TvagENT3; single experiment, Fig. 10D-F): −1.07 | Ki [11, 21]: 231 ± 23 µM | Ki [7, 21]: 347 ± 127 µM

O=c1ccn([C@@H]2O[C@H](CO)[C@@H](O)[C@H]2O)c(=O)[nH]1 [uridine]
Ki [3, 16]: 3.6 ± 1.1 µM | Vmax (TvagENT6 [13]; [3H]-uridine in the presence of 250 µM uracil, average): 0.092 ± 0.021 pmol(10^7 cells)^−1s^−1 | Km [4]: 2.5 µM | Ki (TvagENT3): 11.3 ± 1.8 µM | inhibition of cytidine uptake (TvagENT3; inhibitor at 400 µM): completely | Hill slope (TvagENT3; inhibition of 0.5 µM [3H]-cytidine transport by TvagENT3, average): −0.98 ± 0.08 | Hill slope (TvagENT3; single experiment, Fig. 10D-F): −0.93 | EC50 [5, 17]: 15.3 µM | Ki ([6]; average and SEM): 1.98 ± 0.5 µM | Ki ([6]; average and SEM, listed as Uridine): 2 ± 0.5 µM | Km ([11]; 30 s, average and SEM): 5.49 ± 1.8 µM | Km ([11]; 30 s, average and SEM, listed as Uridine): 5.5 ± 1.8 µM | Ki [7, 18]: 3.7 ± 1 µM | EC50 [8]: 519 µM | Ki [8]: 376 ± 63 µM | Ki ([9]; average and SEM): 7.8 ± 1.3 µM
